Reference: patent US20260241049A1, “Radiopharmaceutical Compositions Targeting Glypican-3 and Uses Thereof” (RayzeBio, Inc., priority 2023, published 2026)
pKd: −log10 of the molar value. Starred links: 1 amine or outer side, 2 acyl side, 3 side chain; linkers in the order of their positions; H or OH if unused. Positions of bridges follow the written chain, without caps; N, C: chain ends. Non-standard residues stand in square brackets, D forms with d. Residues, ends and D or L forms follow the SMILES beside them. Groups on a side chain read outwards from the residue. *: point of attachment. Phe(4-(1-Me-pyrazol-4-yl)) = Cn1cc(-c2ccc(C[C@H](N)C(=O)O)cc2)cn1; NMeAla(isoquinolin-7-yl) = CN[C@@H](Cc1ccc2ccncc2c1)C(=O)O; DOTA = O=C(O)CN1CCN(CC(=O)O)CCN(CC(=O)*)CCN(CC(=O)O)CC1; Phe(4-CH2COOH) = N[C@@H](Cc1ccc(CC(=O)O)cc1)C(=O)O; 3Pal(6-Ph) = N[C@@H](Cc1ccc(-c2ccccc2)nc1)C(=O)O; Phe(4-COOH) = N[C@@H](Cc1ccc(C(=O)O)cc1)C(=O)O; Piperazinyl(4-CH2COOH) = O=C(O)CN1CCN(*)CC1; NMe2Nal = CN[C@@H](Cc1ccc2ccccc2c1)C(=O)O; AEF = NCCOc1ccc(C[C@H](N)C(=O)O)cc1; NMeI = CC[C@H](C)[C@H](NC)C(=O)O; NMeQ = CN[C@@H](CCC(N)=O)C(=O)O; NMehCys = CN[C@@H](CCS)C(=O)O; NMehSer = CN[C@@H](CCO)C(=O)O; NMeK = CN[C@@H](CCCCN)C(=O)O; NMeC = CN[C@@H](CS)C(=O)O; Carboxymethyl = O=C(O)C*; NMeA = CN[C@@H](C)C(=O)O; CO = O=C([*:1])[*:2]

Biological target: T1, human Glypican3 (Homo sapiens, UniProt P51654)
T1 construct: purchased R&D systems 2119-GP
Experiment: SPR binding to Glypican-3, Method B-1 (Glypican3 immobilized on CM3 chip, Biacore T200)
Details: SPR method B-1
Protocol: A CM3 sensor chip (Cytiva) was inserted into a Biacore T200 (Cytiva), primed three times with a running buffer: HBS-P+, pH 7.4 (Cytiva), and equilibrated at a flow rate of 30 μL/min. Ligand immobilization was performed at a flow rate of 10 μL/min. 50 μL each of 60 mM EDC solution (Cytiva) and 650 mM NHS solution (Cytiva) were mixed, and then reacted at a flow rate of 10 μL/min for 420 seconds, 150 μL of 0.2 μM human Glypican3 (R&D systems, catalog number: 2119-GP) solution which was prepared by diluting with 10 mM acetic acid solution (pH 5.0), was reacted at a flow rate of 10 μL/min for 420 seconds, and Glypican3 was immobilized on the CM3 sensor chip. After immobilization, 1.0 M ethanolamine aqueous solution (Cytiva) was allowed to react for 420 seconds at a flow rate of 10 μL/min for capping. A peptide lysate prepared to 10 mM in DMSO solution was diluted with running buffer to a final concentration of 10 μM peptide lysate. After that, 5 serial dilution series (100 nM, 50 nM, 25 nM, 10 nM, 5 nM) of peptide solutions were prepared. Using the above samples, peptide kinetics for Glypican3 was obtained by SPR measurement. Kinetics evaluation of Glypican3 was performed by SPR measurements at a flow rate of 10 μL/min, setting the association time to 120 seconds and the disassociation time to 600 seconds.
(§1) The obtained data by Method B-1, Method B-2, Method B-3 and Method B-4 were analyzed by follow. Single Cycle Kinetics was used as the kinetics evaluation model, and curve fitting was performed using Biacore T200 Evaluation Software Version 3.0 (Cytiva). The obtained sensorgram was subjected to curve fitting by the method of least squares and obtained KD values of the macrocyclic peptides in this disclosure for Glypican 3 protein are shown in Table 18.

Row | pKd | SMILES
1 | 8.82 | CC[C@H](C)[C@@H]1NC(=O)[C@H](Cc2ccc(C(=O)O)cc2)NC(=O)[C@H](CCC(N)=O)N(C)C(=O)[C@H](CC(=O)O)NC(=O)[C@H]([C@@H](C)CC)N(C)C(=O)[C@H](CCCCNC(C)=O)N(C)C(=O)CSC[C@@H](C(N)=O)N(C)C(=O)[C@H](Cc2ccc(-c3cnn(C)c3)cc2)NC(=O)CNC(=O)[C@H](Cc2ccc3ccccc3c2)N(C)C(=O)[C@H](Cc2ccc(C(=O)O)cc2)NC(=O)[C@H]([C@@H](C)CC)NC1=O [Conjugate 2-2] ({CH2CO}-[NMeK](Ac)[NMeI]D[NMeQ][Phe(4-COOH)]II[Phe(4-COOH)][NMe2Nal]G[Phe(4-(1-Me-pyrazol-4-yl))][NMeC]-NH2; thioether N-12)
2 | 8.92 | CC[C@H](C)[C@@H]1NC(=O)[C@H](Cc2ccc(C(=O)O)cc2)NC(=O)[C@H](CCC(N)=O)N(C)C(=O)[C@H](CCC(N)=O)NC(=O)[C@H]([C@@H](C)CC)N(C)C(=O)[C@H](CCCCNC(C)=O)N(C)C(=O)CSC[C@@H](C(N)=O)N(C)C(=O)[C@H](Cc2ccc(-c3cnn(C)c3)cc2)NC(=O)CNC(=O)[C@H](Cc2ccc3ccccc3c2)N(C)C(=O)[C@H](Cc2ccc(C(=O)O)cc2)NC(=O)[C@H]([C@@H](C)CC)NC1=O [Conjugate 2-3] ({CH2CO}-[NMeK](Ac)[NMeI]Q[NMeQ][Phe(4-COOH)]II[Phe(4-COOH)][NMe2Nal]G[Phe(4-(1-Me-pyrazol-4-yl))][NMeC]-NH2; thioether N-12)
3 | 8.74 | CC[C@H](C)[C@@H]1NC(=O)[C@H]([C@@H](C)OC)NC(=O)[C@H](Cc2ccc(C(=O)O)cc2)NC(=O)[C@H](CCC(N)=O)N(C)C(=O)[C@H](CC(=O)O)NC(=O)[C@H](CCC(N)=O)N(C)C(=O)[C@H](CCC(N)=O)N(C)C(=O)SCC[C@@H](C(N)=O)N(C)C(=O)[C@H](Cc2ccc(-c3cnn(C)c3)cc2)NC(=O)CNC(=O)[C@H](Cc2ccc3ccccc3c2)N(C)C(=O)[C@H](Cc2ccc(C(=O)O)cc2)NC1=O [Conjugate 2-15] ([NMeQ][NMeQ]D[NMeQ][Phe(4-COOH)]T(Me)I[Phe(4-COOH)][NMe2Nal]G[Phe(4-(1-Me-pyrazol-4-yl))][NMehCys]-NH2; linker N-12 via CO)

Biological target: Human Glypican3-Fc (Homo sapiens, UniProt P51654)
Experiment: SPR binding to Glypican-3, Method B-2 (Glypican3-Fc captured by anti-human IgG (Fc) antibody on CM3 chip)
Details: SPR method B-2
Protocol: A CM3 sensor chip (Cytiva) was inserted into a Biacore T200 (Cytiva), primed three times with a running buffer: HBS-P-+, pH 7.4 (Cytiva), and equilibrated at a flow rate of 30 μL/min. Using the Anti-Fc Capture Kit (Cytiva), 50 LL each of 60 mM EDC solution (Cytiva) and 650 mM NHS solution (Cytiva) were mixed, and then reacted at a flow rate of 10 μL/min for 420 seconds, 150 μL of […] Anti-human IgG (Fc) Antibody solution was prepared by diluting with 10 mM acetic acid solution (pH 5.0), reacted at a flow rate of 10 μL/min for 420 seconds, and immobilized on a CM3 sensor chip. After immobilization, 1.0 M ethanolamine aqueous solution (Cytiva) was allowed to react for 420 seconds at a flow rate of 10 μL/min for capping. Human Glypican3-Fc (ACRO Biosystems, GP3-H5258) was allowed to react for 60 seconds at a flow rate of 10 μL/min. After capturing human Glypican3-Fc, a peptide solution prepared to 10 mM in DMSO solution was diluted with a running buffer to a final concentration of 10 μM. After that, 5 serial dilution series (100 nM, 50 nM, 25 nM, 10 nM, 5 nM) of peptide solutions were prepared. Using the above samples, peptide kinetics for Glypican3 was obtained by SPR measurement. Kinetics evaluation of Glypican3 was performed by SPR measurements at a flow rate of 10 μL/min. setting the association time to 120 seconds and the disassociation time to 600 seconds.
as §1

Row | pKd | SMILES
4 | 8.98 | CC[C@H](C)[C@@H]1NC(=O)[C@H](Cc2ccc(C(=O)O)cc2)NC(=O)[C@H](CCC(N)=O)N(C)C(=O)[C@H](CC(=O)O)NC(=O)[C@H](CCOC)N(C)C(=O)[C@H](CCCCNC(=O)CN2CCN(CC(=O)O)CCN(CC(=O)O)CCN(CC(=O)O)CC2)N(C)C(=O)CSC[C@@H](C(N)=O)N(C)C(=O)[C@H](Cc2ccc(-c3ccccc3)nc2)NC(=O)CNC(=O)[C@H](Cc2ccc3ccccc3c2)N(C)C(=O)[C@H](Cc2ccc(CC(=O)O)cc2)NC(=O)[C@H]([C@@H](C)CC)NC1=O [Lu-C-21] ({CH2CO}-[NMeK](DOTA)[NMehSer](Me)D[NMeQ][Phe(4-COOH)]II[Phe(4-CH2COOH)][NMe2Nal]G[3Pal(6-Ph)][NMeC]-NH2; thioether N-12)
5 | 9.10 | CC[C@H](C)[C@@H]1NC(=O)[C@H](Cc2ccc(C(=O)O)cc2)NC(=O)[C@H](CCC(N)=O)N(C)C(=O)[C@H](CC(=O)O)NC(=O)[C@H]([C@@H](C)CC)N(C)C(=O)[C@H](CCCCNC(=O)[C@@H](Cc2ccccc2)NC(=O)CN2CCN(CC(=O)O)CCN(CC(=O)O)CCN(CC(=O)O)CC2)N(C)C(=O)CSC[C@@H](C(N)=O)N(C)C(=O)[C@H](Cc2ccc(-c3ccccc3)nc2)NC(=O)CNC(=O)[C@H](Cc2ccc3ccncc3c2)N(C)C(=O)[C@H](Cc2ccc(OCC(=O)O)cc2)NC(=O)[C@H]([C@@H](C)CC)NC1=O [Lu-C-41] ({CH2CO}-[NMeK]([dF-DOTA])[NMeI]D[NMeQ][Phe(4-COOH)]IIY(Carboxymethyl)[NMeAla(isoquinolin-7-yl)]G[3Pal(6-Ph)][NMeC]-NH2; thioether N-12)
6 | 9.30 | CC[C@H](C)[C@@H]1NC(=O)[C@H]([C@@H](C)OC)NC(=O)[C@H](Cc2ccc(C(=O)O)cc2)NC(=O)[C@H](CCC(N)=O)N(C)C(=O)[C@H](CC(=O)O)NC(=O)[C@H](CCOC)N(C)C(=O)[C@H](CCC(N)=O)N(C)C(=O)CSC[C@@H](C(N)=O)N(C)C(=O)[C@H](Cc2ccc(-c3ccccc3)nc2)NC(=O)CNC(=O)[C@H](Cc2ccc3ccccc3c2)N(C)C(=O)[C@H](Cc2ccc(OCCNC(=O)N3CCN(CC(=O)O)CC3)cc2)NC1=O [Conjugate 2-19] ({CH2CO}-[NMeQ][NMehSer](Me)D[NMeQ][Phe(4-COOH)]T(Me)I[AEF]([CO-Piperazinyl(4-CH2COOH)])[NMe2Nal]G[3Pal(6-Ph)][NMeC]-NH2; thioether N-12)
7 | 8.74 | CC[C@H](C)[C@@H]1NC(=O)[C@H](Cc2ccc(C(=O)O)cc2)NC(=O)[C@H](CCC(N)=O)N(C)C(=O)[C@H](CC(=O)O)NC(=O)[C@H](CCC(N)=O)N(C)C(=O)[C@H](CCC(N)=O)N(C)C(=O)CSC[C@@H](C(N)=O)N(C)C(=O)[C@H](Cc2ccc(-c3cnn(C)c3)cc2)NC(=O)CNC(=O)[C@H](Cc2ccc3ccccc3c2)N(C)C(=O)[C@H](Cc2ccc(OCCNC(=O)CN3CCN(CC(=O)O)CCN(CC(=O)O)CCN(CC(=O)O)CC3)cc2)NC(=O)[C@H]([C@@H](C)CC)NC1=O [Lu-C-28] ({CH2CO}-[NMeQ][NMeQ]D[NMeQ][Phe(4-COOH)]II[AEF](DOTA)[NMe2Nal]G[Phe(4-(1-Me-pyrazol-4-yl))][NMeC]-NH2; thioether N-12)
8 | 9.00 | CC[C@H](C)[C@@H]1NC(=O)[C@H]([C@@H](C)OC)NC(=O)[C@H](Cc2ccc(C(=O)O)cc2)NC(=O)[C@H](CCC(N)=O)N(C)C(=O)[C@H](CC(=O)O)NC(=O)[C@H](CCOC)N(C)C(=O)[C@H](C)N(C)C(=O)CSC[C@@H](C(N)=O)N(C)C(=O)[C@H](Cc2ccc(-c3ccccc3)nc2)NC(=O)CNC(=O)[C@H](Cc2ccc3ccccc3c2)N(C)C(=O)[C@H](Cc2ccc(OCCNC(=O)CN3CCN(CC(=O)O)CCN(CC(=O)O)CCN(CC(=O)O)CC3)cc2)NC1=O [Lu-C-44] ({CH2CO}-[NMeA][NMehSer](Me)D[NMeQ][Phe(4-COOH)]T(Me)I[AEF](DOTA)[NMe2Nal]G[3Pal(6-Ph)][NMeC]-NH2; thioether N-12)
9 | 8.82 | CC[C@H](C)[C@@H]1NC(=O)[C@H](Cc2ccc(C(=O)O)cc2)NC(=O)[C@H](CCC(N)=O)N(C)C(=O)[C@H](CC(=O)O)NC(=O)[C@H](CCC(N)=O)N(C)C(=O)[C@H](C)N(C)C(=O)CSC[C@@H](C(N)=O)N(C)C(=O)[C@H](Cc2ccc(-c3ccccc3)nc2)NC(=O)CNC(=O)[C@H](Cc2ccc3ccccc3c2)N(C)C(=O)[C@H](Cc2ccc(C(=O)O)cc2)NC(=O)[C@H]([C@@H](C)CC)NC1=O [Conjugate 2-23] ({CH2CO}-[NMeA][NMeQ]D[NMeQ][Phe(4-COOH)]II[Phe(4-COOH)][NMe2Nal]G[3Pal(6-Ph)][NMeC]-NH2; thioether N-12)
10 | 9.15 | CC[C@H](C)[C@@H]1NC(=O)[C@H]([C@@H](C)OC)NC(=O)[C@H](Cc2ccc(C(=O)O)cc2)NC(=O)[C@H](CCC(N)=O)N(C)C(=O)[C@H](CC(=O)O)NC(=O)[C@H]([C@@H](C)CC)N(C)C(=O)[C@H](CCCCNC(=O)CN2CCN(CC(=O)O)CCN(CC(=O)O)CCN(CC(=O)O)CC2)N(C)C(=O)CSC[C@@H](C(N)=O)N(C)C(=O)[C@H](Cc2ccc(-c3ccccc3)nc2)NC(=O)CNC(=O)[C@H](Cc2ccc3ccncc3c2)N(C)C(=O)[C@H](Cc2ccc(OCC(=O)O)cc2)NC1=O [Lu-C-30] ({CH2CO}-[NMeK](DOTA)[NMeI]D[NMeQ][Phe(4-COOH)]T(Me)IY(Carboxymethyl)[NMeAla(isoquinolin-7-yl)]G[3Pal(6-Ph)][NMeC]-NH2; thioether N-12)
